Assay results from patent publication US5726319A, “Biphenyl substituted dipeptide analogs promote release of growth hormone” (Merck & Co., Inc., priority 1995, dated 1998).
Structures can show the parent of a compound that is named as a salt.

What follows are compounds tested on rat pituitary cells (assay: growth hormone secretion in rat pituitary cell cultures (GH release, RIA)). Conditions: 0.25 h; GH release from cultured rat anterior pituitary cells, 15 min incubation at 37° C., rat GH measured by double antibody RIA; read-out: ED50 (the source's name).
Assay type: cell-based
Method: The bioassay employed for the determination of growth hormone secretion in rat pituitary cell cultures has been previously described--Cheng, K.; Chan, W. W.-S; Barreto, A.; Convey, E. M.; Smith, R. G. Endocrinology 124: 2791-2798 (1989)--and is summarized here: The Wistar male rats (150-200 grams) were obtained from Charles River Laboratories (Wilmington, Mass). Rats were maintained at a constant temperature (25° C.) on a 14-hr light, 10-hr dark cycle. Rat chow and water were available ad libitum. The animals were sacrificed by decapitation and anterior lobes of the pituitary quickly removed. Rat pituitary cells were isolated from pituitaries by enzymatic digestion with 0.2% collagenase and 0.2% hyaluronidase in Hank's Balanced Salt Solution. For culture, the cells were suspended in culture medium and adjusted to 1.5×10^5 cells/ml, and 1.0 ml of this suspension was placed in each well of a 24-well tray (Costar, Cambridge, Mass.). Cells were maintained in a humidified 5% CO2 -95% air atmosphere at 37° C. for 3 to 4 days. The culture medium consisted of DMEM containing 0.37% NaHCO3, 10% horse serum, 2.5% fetal bovine serum, 1% non-essential amino acids, 1% glutamine, 1% nystatin, and 0.1% gentamycin. On the day of an experiment, cells were washed twice 11/2 hrs prior to and once more immediately before the start of the experiment with the above culture medium containing 25 mM HEPES, pH 7.4. GH release was initiated by adding 1 ml of fresh medium containing test agents to each well in quadruplicate. Incubation was carded out at 37° C. for 15 min. After incubation, medium was removed and centrifuged at 2,000×g for 15 min to remove any cellular material. The supernatant fluid was removed and assayed for GH content. Rat GH in culture medium was measured by a double antibody RIA procedure using materials obtained from Dr. A. F. Parlow (Harbor-UCLA medical Center, Torrance, Calif.) and expressed in terms of the standard rat GH RP-2. ED50 values for test compounds were computed by fitting a four-parameter logistic function to the dose-response curve. Least squares estimates of the four-parameter logistic function coefficients and their variances were derived using the iterative algorithm described by Bates and Watts.
CC(C)(N)CC(=O)N[C@H](CCc1ccccc1)C(=O)NCc1ccc(-c2ccccc2-c2nnn[nH]2)cc1 [Example 1, (R)-α-[(3-Amino-3-methyl-1-oxobutyl)amino]-N-[[2'-(1H-tetrazol-5-yl)[1,1'-biphenyl]-4-yl]methyl]benzene-butanamide, trifluoroacetate] was tested, and the EC50 was > 500 nM.
In the case of CNC(=O)Nc1ccccc1-c1ccc(CNC(=O)[C@@H](COCc2ccccc2)NC(=O)C(C)(C)N)cc1 [Example 23, (R)-α-[(2-Amino-2-methyl-1-oxopropyl]amino]-N-[[2'-[[(methylamino)carbonyl]amino][1,1'-biphenyl]-4-yl]methyl]-3-[(phenylmethyl)oxy]propanamide, trifluoroacetate], the EC50 is reported as > 500 nM.
CC(C)(N)C(=O)N[C@H](Cc1c[nH]c2ccccc12)C(=O)NCc1ccc(-c2ccccc2NC(=O)NCCO)cc1 [Example 16, (R)-α-[(2-Amino-2-methyl-1-oxopropyl)amino]-N-[[2'-[[(2-hydroxyethylamino)carbonyl]amino][1,1'-biphenyl]-4-yl]-methyl]-1H-indole-3-propanamide, trifluoroacetate] was tested, and the EC50 was > 500 nM.
With CNC(=O)Nc1ccccc1-c1ccc(CNC(=O)[C@@H](Cc2c[nH]c3ccccc23)NC(=O)C(C)(C)N)cc1 [Example 6, (R)-α-[(2-Amino-2-methyl-1-oxopropyl)amino]-N-[[2'-[[(methylamino)carbonyl]amino][1,1'-biphenyl]-4-yl]methyl]-1H-indole-3-propanamide, trifluoroacetate] the EC50 was > 500 nM.
For CC(C)(N)CC(=O)N[C@H](Cc1c[nH]c2ccccc12)C(=O)NCc1ccc(-c2ccccc2-c2nnn[nH]2)cc1 [Example 3, (R)-α-[(3-Amino-3-methyl-1-oxobutyl)amino]-N-[[2'-(1H-tetrazol-5-yl)[1,1'-biphenyl]-4-yl]methyl]-1H-indole-3-propanamide, trifluoroacetate], the EC50 was < 500 nM.
For CNC(=O)Nc1ccccc1-c1ccc(CNC(=O)[C@@H](Cc2c[nH]c3ccccc23)NC(=O)CC(C)(C)N)cc1 [Example 15, (R)-α-[(3-Amino-3-methyl-1-oxobutyl)amino]-N-[[2'-[[(methylamino)carbonyl]amino][1,1'-biphenyl]-4-yl]-methyl]-1H-indole-3-propanamide, trifluoroacetate], the EC50 was > 500 nM.
With CC[C@@H](NC(=O)CC(C)(C)N)C(=O)N(Cc1ccc(-c2ccccc2-c2nnn[nH]2)cc1)c1ccccc1 [Example 4, (R)-2-[(3-Amino-3-methyl-1-oxobutyl)amino]-N-phenyl-N-[[2'-(1H-tetrazol-5-yl)[1,1'-biphenyl]-4-yl]methyl]butanamide, trifluoroacetate] the EC50 was > 500 nM.
In the case of CN(Cc1ccc(-c2ccccc2-c2nnn[nH]2)cc1)C(=O)[C@@H](Cc1c[nH]c2ccccc12)NC(=O)C(C)(C)N [Example 13, (R)-α-[(2-Amino-2-methyl-1-oxopropyl)amino]-N-methyl-N-[[2'-(1H-tetrazol-5-yl)[1,1'-biphenyl]-4-yl]methyl]-1H-indole-3-propanamide, trifluoroacetate], the EC50 is reported as > 500 nM.

Same assay, conditions: GH release from cultured rat anterior pituitary cells, 15 min incubation at 37° C., rat GH measured by double antibody RIA; read-out: ED50 (the source's name)
For CN(Cc1ccc(-c2ccccc2-c2nnn[nH]2)cc1)C(=O)[C@@H](CCc1ccccc1)NC(=O)CCC(C)(C)N.O=C(O)C(F)(F)F [Example 11, (R)-α-[(4-Amino-4-methyl-1-oxopentyl)amino]-N-methyl-N-[[2'-(1H-tetrazol-5-yl)[1,1'-biphenyl]-4-yl]methyl]benzenebutan amide, trifluoroacetate], the EC50 was < 500 nM.
For CN(Cc1ccc(-c2ccccc2-c2nnn[nH]2)cc1)C(=O)[C@@H](CCc1ccccc1)NC(=O)C(C)(C)N.O=C(O)C(F)(F)F [Example 7a, (R)-α-[(2-Amino-2-methyl-1-oxypropyl)amino]-N-methyl-N-[[2'-(1H-tetrazol-5-yl)-[1,1'-biphenyl]-4-yl]methyl]benzenebutanamide trifluoroacetate], the EC50 was < 500 nM.
For CC(C)(N)CC(=O)N[C@H](COCc1ccccc1)C(=O)NCc1ccc(-c2ccccc2-c2nnn[nH]2)cc1.O=C(O)C(F)(F)F [Example 28, (R)-α-[(3-Amino-3-methyl-1-oxybutyl)amino]-N-[[2'-(1H-tetrazol-5-yl)-[1,1'-biphenyl]-4-yl]methyl]-3-[(phenylmethyl)oxy]propanamide, trifluoracetate], the EC50 was > 500 nM.
With “(R)-α-[(2-Amino-2-methyl)-1-oxopropyl]amino-N -methyl-N -[2'-(1H -tetrazol-5-yl)[1,1'-biphenyl]-4-yl]butanamide, trifluoroacetate [Example 34]” the EC50 was < 500 nM.
With CC(C)(N)CC(=O)N[C@H](COCc1ccccc1)C(=O)NCc1ccc(-c2ccccc2NC(=O)NCCO)cc1.O=C(O)C(F)(F)F [Example 26, (R)-α-[(3-Amino-3-methyl-1-oxobutyl)amino]-N-[[(2'-[(2-hydroxyethylamino)carbonyl]amino][1,1'-biphenyl]-4-yl]-methyl]-3-[(phenylmethyl)oxy]propanamide, trifluoracetate] the EC50 was > 500 nM.
For CNC(=O)NCc1ccccc1-c1ccc(CN(C)C(=O)[C@@H](Cc2c[nH]c3ccccc23)NC(=O)C(C)(C)N)cc1.O=C(O)C(F)(F)F [Example 14], the EC50 was < 500 nM.
In the case of CNC(=O)Nc1ccccc1-c1ccc(CNC(=O)[C@@H](COCc2ccccc2)NC(=O)CC(C)(C)N)cc1.O=C(O)C(F)(F)F [Example 24], the EC50 is reported as > 500 nM.
For COc1ccc(N(Cc2ccc(-c3ccccc3-c3nnn[nH]3)cc2)C(=O)[C@@H](CCc2ccccc2)NC(=O)CC(C)(C)N)cc1.O=C(O)C(F)(F)F [Example 30, (R)-α-[(3-Amino-3-methyl-1-oxybutyl)amino]-N-(4-methoxyphenyl)-N-[[2'-(1H-tetrazol-5-yl)-[1,1'-biphenyl]-4-yl]methyl]-benzenebutanamide, trifluoroacetate], the EC50 was > 500 nM.
CNC(=O)NCc1ccccc1-c1ccc(CN(C)C(=O)[C@@H](CCc2ccccc2)NC(=O)C(C)(C)N)cc1.O=C(O)C(F)(F)F [Example 9] was tested, and the EC50 was < 500 nM.
With “(R)-α-[(2-Amino-2-methyl)-1-oxopropyl]amino-N-methyl-N-[(2'-[[(methylamino)carbonyl]amino)methyl][1,1'-biphenyl]-4-yl]benzenebutanamide, trifluoroacetate [Example 35]” the EC50 was < 500 nM.
CNC(=O)NCc1ccccc1-c1ccc(CN(C)C(=O)[C@@H](CCc2ccccc2)NC(=O)CC(C)(C)N)cc1.O=C(O)C(F)(F)F [Example 10] was tested, and the EC50 was < 500 nM.
CC(C)(N)C(=O)N[C@H](COCc1ccccc1)C(=O)NCc1ccc(-c2ccccc2-c2nnn[nH]2)cc1.O=C(O)C(F)(F)F [Example 27, (R)-α-[(2-Amino-2-methyl-1-oxypropyl)amino]-N-[[2'-(1H-tetrazol-5-yl)-[1,1'-biphenyl]-4-yl]methyl]-3-[(phenylmethyl)oxy]propanamide, trifluoracetate] was tested, and the EC50 was > 500 nM.
CCN(Cc1ccc(-c2ccccc2-c2nnn[nH]2)cc1)C(=O)[C@@H](CCc1ccccc1)NC(=O)C(C)(C)N.O=C(O)C(F)(F)F [Example 18, (R)-α-[(2-Amino-2-methyl-1-oxypropyl)amino]-N-ethyl-N-[[2'-(1H-tetrazol-5-yl)-[1,1'-biphenyl]-4-yl]methyl]benzenebutanamide, trifluoroacetate] was tested, and the EC50 was > 500 nM.
